pEC50, pIC50: −log10 of the molar value. A value given as a limit tells only on which side of the number the result lay.

Here are results for 21 compounds from patent US11236087B2, “Highly active pyrazolo-piperidine substituted indole-2-carboxamides active against the hepatitis B virus (HBV)” (AiCuris GmbH & Co. KG, priority 2017, dated 2022).

One data set relates to HBV. Nature of the data set: Determination of HBV DNA from the supernatants of HepAD38 cells (anti-HBV activity). The format is cell-based, hepatitis B virus. The note with it: Hepatitis B virus, 144 h; HBV DNA in HepAD38 supernatant, day 6, qPCR; read-out: Cell Activity (EC50). Put shortly: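 Supernatant viral DNA was measured by LightCycler qPCR, calibrated with pCH-9/3091 plasmid, 6 days after tetracycline-free HepAD38 cultures received half-log serial compound dilutions; untreated and tetracycline-treated cells served as controls; EC50 was fitted by non-linear regression.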
(Quantitative PCR measures a nucleic acid by following its amplification.)

The target in the next data set is T1, HBV core protein (UniProt P03146).
T1 construct: fused on or other part: BODIPY-FL maleimide label on the C-terminal Cys150
Nature of the data set: Biochemical capsid assembly assay (fluorescence quenching). Further details: species or system hepatitis B virus. The note with it: read-out: Assembly Activity (IC50); BODIPY-FL labelled core protein, 300 μM NaCl, read 6 min after start. In short, it runs like this:
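Assembly-induced fluorescence quenching (477/525 nm) was measured 6 min after NaCl addition ([…]), against 2.5 M and 0 M NaCl controls. The labelled C150 core dimer (truncated at 149) at 1.0-2.0 μM in HEPES pH 7.5 was tested with eight half-log compound dilutions, top 100, 31.6 or 10 μM. EC50 was obtained by non-linear fit from triplicates run three times.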

The nature of data set [1]: Cell viability assay (AlamarBlue) in HepAD38 cells. The conditions noted are these: human.

T1 sequence (P03146 whole entry, looked up, the tested form may be a part): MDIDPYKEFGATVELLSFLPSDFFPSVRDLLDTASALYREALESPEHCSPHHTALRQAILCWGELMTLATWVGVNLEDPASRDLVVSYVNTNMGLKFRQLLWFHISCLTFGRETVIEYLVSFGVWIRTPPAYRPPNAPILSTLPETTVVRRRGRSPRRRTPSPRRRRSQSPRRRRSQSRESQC

As usually defined, the pEC50 is −log10 of the EC50, conventionally taken in molar units. One may read the pIC50 as −log10 of the IC50, conventionally taken in molar units. As a reminder, the CC50 is the concentration that lowers cell viability or growth by half. A high value points to lower toxicity to the cells. `CN(CC1CCCO1)C(=O)c1n[nH]c2c1CN(C(=O)c1cc3ccccc3[nH]1)CC2` (stereo not drawn) [Example 97, 5-(1H-indole-2-carbonyl)-N-methyl-N-[(oxolan-2-yl)methyl]-1H,4H,5H,6H,7H-pyrazolo[4,3-c]pyridine-3-carboxamide]: the negative-log EC50 (pEC50) in the data set on HBV was > 6.00. At HBV core protein, the negative logarithm of the IC50 (pIC50) is 5.00 to 5.30. Moreover, in data set [1], the cytotoxic concentration (CC50) at 6 days is > 100 µM.
In the same order, the values of `CN1CCN(C(=O)c2n[nH]c3c2CN(C(=O)c2cc4ccccc4[nH]2)CC3)CC1` [Example 98, 2-[3-(4-methylpiperazine-1-carbonyl)-1H,4H,5H,6H,7H-pyrazolo[4,3-c]pyridine-5-carbonyl]-1H-indole] are 4.60 to 6.00, > 4.00 and > 32 µM.
In the same order, the values of `O=C(c1cc2ccccc2[nH]1)N1CCc2[nH]nc(C(=O)N3CCCC3)c2C1` [Example 99, 2-[3-(pyrrolidine-1-carbonyl)-1H,4H,5H,6H,7H-pyrazolo[4,3-c]pyridine-5-carbonyl]-1H-indole] are 4.60 to 6.00, 5.00 to 5.30 and > 100 µM.
In the same order, the values of `CN(CCO)C(=O)c1n[nH]c2c1CN(C(=O)c1cc3ccccc3[nH]1)CC2` [Example 100, N-(2-hydroxyethyl)-5-(1H-indole-2-carbonyl)-N-methyl-1H,4H,5H,6H,7H-pyrazolo[4,3-c]pyridine-3-carboxamide] are > 6.00, > 5.30 and > 100 µM.
Regarding `CS(=O)(=O)CCNC(=O)c1n[nH]c2c1CN(C(=O)c1cc3ccccc3[nH]1)CC2` [Example 101, 5-(1H-indole-2-carbonyl)-N-(2-methanesulfonylethyl)-1H,4H,5H,6H7H-pyrazolo[4,3-c]pyridine-3-carboxamide], the pEC50 in the data set with HBV is > 4.00. Further, at HBV core protein, the pIC50 is > 4.00. In data set [1], the CC50 at 6 days is > 100 µM.
In the case of `CN(CCCO)C(=O)c1n[nH]c2c1CN(C(=O)c1cc3ccccc3[nH]1)CC2` [Example 102, N-(3-hydroxypropyl)-5-(1H-indole-2-carbonyl)-N-methyl-1H,4H,5H,6H,7H-pyrazolo[4,3-c]pyridine-3-carboxamide], the negative logarithm of the EC50 (pEC50) with HBV is > 6.00. Moreover, on HBV core protein, the pIC50 is > 5.30. For the same compound, the 50% cytotoxic concentration (CC50) at 6 days in data set [1] was > 100 µM.
`CCN(C)C(=O)c1n[nH]c2c1CN(C(=O)c1cc3ccccc3[nH]1)CC2` [Example 103, N-ethyl-5-(1H-indole-2-carbonyl)-N-methyl-1H,4H,5H,6H,7H-pyrazolo[4,3-c]pyridine-3-carboxamide]: the negative-log EC50 (pEC50) with HBV is > 6.00. In addition, at HBV core protein, the negative-log IC50 (pIC50) was > 5.30. Moreover, in data set [1], the CC50 at 6 days is > 100 µM.
In the case of `COCCNC(=O)c1n[nH]c2c1CN(C(=O)c1cc3ccccc3[nH]1)CC2` [Example 104, 5-(1H-indole-2-carbonyl)-N-(2-methoxyethyl)-1H,4H,5H,6H,7H-pyrazolo[4,3-c]pyridine-3-carboxamide], the pEC50 in the data set on HBV was 4.60 to 6.00. Also, the negative-log IC50 (pIC50) at HBV core protein was > 4.00. The CC50 at 6 days in data set [1] is > 100 µM.
Turning to `O=C(NCCCO)c1n[nH]c2c1CN(C(=O)c1cc3ccccc3[nH]1)CC2` [Example 105, N-(3-hydroxypropyl)-5-(1H-indole-2-carbonyl)-1H,4H,5H,6H,7H-pyrazolo[4,3-c]pyridine-3-carboxamide], in the data set with HBV, the pEC50 was 4.60 to 6.00. Moreover, the negative logarithm of the IC50 (pIC50) on HBV core protein is > 4.00. The CC50 at 6 days in data set [1] is > 100 µM.
In the case of `NC(=O)c1n[nH]c2c1CN(C(=O)c1cc3ccccc3[nH]1)CC2` [Example 106, 5-(1H-indole-2-carbonyl)-1H,4H,5H,6H,7H-pyrazolo[4,3-c]pyridine-3-carboxamide], in the data set on HBV, the pEC50 was > 4.00. Moreover, at HBV core protein, the negative logarithm of the IC50 (pIC50) was > 4.00. Also, in data set [1], the CC50 at 6 days was > 100 µM.
With `O=C(NCCO)c1n[nH]c2c1CN(C(=O)c1cc3ccccc3[nH]1)CC2` [Example 107, N-(2-hydroxyethyl)-5-(1H-indole-2-carbonyl)-1H,4H,5H,6H,7H-pyrazolo[4,3-c]pyridine-3-carboxamide], the pEC50 in the data set on HBV was 4.60 to 6.00. In addition, the negative-log IC50 (pIC50) on HBV core protein was > 4.00. Also, in data set [1], the CC50 at 6 days is > 100 µM.
In the same order, the values of `O=C(c1cc2ccccc2[nH]1)N1CCc2[nH]nc(C(=O)N3CCOCC3)c2C1` [Example 108, 2-[3-(morpholine-4-carbonyl)-1H,4H,5H,6H,7H-pyrazolo[4,3-c]pyridine-5-carbonyl]-1H-indole] are 4.60 to 6.00, > 4.00 and > 100 µM.
On to `CCNC(=O)c1n[nH]c2c1CN(C(=O)c1cc3ccccc3[nH]1)CC2` [Example 109, N-ethyl-5-(1H-indole-2-carbonyl)-1H,4H,5H,6H,7H-pyrazolo[4,3-c]pyridine-3-carboxamide], for which the pEC50 in the data set with HBV was 4.60 to 6.00. The pIC50 at HBV core protein is 5.00 to 5.30. For the same compound, the CC50 at 6 days in data set [1] was > 100 µM.
Turning to `O=C(c1cc2ccccc2[nH]1)N1CCc2[nH]nc(C(=O)N3CCCCC3)c2C1` [Example 112, 2-[3-(piperidine-1-carbonyl)-1H,4H,5H,6H,7H-pyrazolo[4,3-c]pyridine-5-carbonyl]-1H-indole], in the data set on HBV, the negative-log EC50 (pEC50) is > 6.00. For the same compound, the pIC50 at HBV core protein was > 5.30. Also, the 50% cytotoxic concentration (CC50) at 6 days in data set [1] was > 32 µM.
In the same order, the values of `CON(C)C(=O)c1n[nH]c2c1CN(C(=O)c1cc3c(Cl)cccc3[nH]1)CC2` [Example 113, 5-(4-chloro-1H-indole-2-carbonyl)-N-methoxy-N-methyl-1H,4H,5H,6H,7H-pyrazolo[4,3-c]pyridine-3-carboxamide] are > 6.00, > 5.30 and > 100 µM.
Regarding `O=C(c1cc2c(F)cccc2[nH]1)N1CCc2[nH]ncc2C1` [Example 114, 4-fluoro-2-{1H,4H,5H,6H,7H-pyrazolo[4,3-c]pyridine-5-carbonyl}-1H-indole], in the data set with HBV, the pEC50 was > 6.00. Further, the negative-log IC50 (pIC50) at HBV core protein is > 5.30. Moreover, the CC50 at 6 days in data set [1] is > 100 µM.
Take `Nc1n[nH]c2c1CN(C(=O)c1cc3ccccc3[nH]1)CC2` [Example 115, 5-(1H-indole-2-carbonyl)-1H,4H,5H,6H,7H-pyrazolo[4,3-c]pyridin-3-amine]: the pEC50 in the data set with HBV was 4.60 to 6.00. At HBV core protein, the negative logarithm of the IC50 (pIC50) is 5.00 to 5.30. In addition, the 50% cytotoxic concentration (CC50) at 6 days in data set [1] was > 100 µM.
With `Cc1noc(-c2n[nH]c3c2CN(C(=O)c2cc4ccccc4[nH]2)CC3)n1` [Example 116, 2-[3-(3-methyl-1,2,4-oxadiazol-5-yl)-1H,4H,5H,6H,7H-pyrazolo[4,3-c]pyridine-5-carbonyl]-1H-indole], the negative-log EC50 (pEC50) with HBV was > 4.00. Further, the negative logarithm of the IC50 (pIC50) at HBV core protein is 5.00 to 5.30. The CC50 at 6 days in data set [1] was > 100 µM.
Turning to `O=C(c1cc2c(F)cc(F)cc2[nH]1)N1C2CCC1c1cn[nH]c1C2` (stereo not drawn) [Example 117, 11-(4,6-difluoro-1H-indole-2-carbonyl)-4,5,11-triazatricyclo[6.2.1.0^2,6]undeca-2(6),3-diene], in the data set on HBV, the negative logarithm of the EC50 (pEC50) is > 4.00. The pIC50 on HBV core protein was > 4.00. For the same compound, the CC50 at 6 days in data set [1] is > 100 µM.
Turning to `O=C(c1cc2ccccc2[nH]1)N1CCc2[nH]nc(CO)c2C1` [Example 118, [5-(1H-indole-2-carbonyl)-1H,4H,5H,6H,7H-pyrazolo[4,3-c]pyridin-3-yl]methanol], the negative logarithm of the EC50 (pEC50) in the data set on HBV is 4.60 to 6.00. At HBV core protein, the negative logarithm of the IC50 (pIC50) was 5.00 to 5.30. Further, the CC50 at 6 days in data set [1] was > 100 µM.
As for `O=C(c1cc2ccc(Br)cc2[nH]1)N1CCc2[nH]ncc2C1` [Example 119, 6-bromo-2-{1H,4H,5H,6H,7H-pyrazolo[4,3-c]pyridine-5-carbonyl}-1H-indole], the pEC50 in the data set with HBV is > 6.00. Also, on HBV core protein, the negative-log IC50 (pIC50) is > 5.30. In data set [1], the CC50 at 6 days was > 100 µM.
